According to PubChem BioAssay (NCI):
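Method: 48-hour compound exposure of cells in 96-well plates, five concentrations, linear interpolation of endpoints. TGI: total growth inhibition.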

Columns and labels:
Test in all cases: NCI anticancer screen, dose series, 48 h
[1] = tested on: SR leukemia
[2] = tested on: COLO 205 colon
[3] = tested on: UACC-62 melanoma
[4] = tested on: CAKI-1 renal
[5] = tested on: SN12C renal
[6] = tested on: OVCAR-4 ovarian
[7] = tested on: U251 CNS
[8] = tested on: SK-MEL-5 melanoma
[9] = tested on: NCI-H23 lung
[10] = tested on: MDA-N
[11] = tested on: SW-620 colon
[12] = tested on: BT-549 breast
[13] = tested on: A498 renal
[14] = tested on: M14 melanoma
[15] = tested on: SNB-19 CNS
[16] = tested on: NCI/ADR-RES ovarian
[17] = tested on: KM12 colon
[18] = tested on: NCI-H460 lung
[19] = tested on: RPMI-8226 leukemia
[20] = tested on: HOP-92 NSCLC
[21] = tested on: MCF7 breast
[22] = tested on: EKVX NSCLC
[23] = tested on: HS 578T breast
[24] = tested on: ACHN renal
[25] = tested on: SK-MEL-28 melanoma
[26] = tested on: HCT-116 colon
[27] = tested on: SF-268 CNS
[28] = tested on: HOP-62 NSCLC
[29] = tested on: SK-OV-3 ovarian
[30] = tested on: HT29 colon
[31] = tested on: SF-295 CNS
[32] = tested on: UO-31 renal
[33] = tested on: K-562 leukemia
[34] = tested on: 786-0 renal
[35] = tested on: MALME-3M melanoma
[36] = tested on: DU-145 prostate
[37] = tested on: NCI-H522 lung
[38] = tested on: HL-60(TB) leukemia
[39] = tested on: PC-3 prostate
[40] = tested on: MOLT-4 leukemia
[41] = tested on: TK-10 renal
[42] = tested on: IGROV1 ovarian
[43] = tested on: OVCAR-3 ovarian
[44] = tested on: OVCAR-8 ovarian
[45] = tested on: OVCAR-5 ovarian
[46] = tested on: SF-539 CNS
[47] = tested on: UACC-257 melanoma
[48] = tested on: A549 NSCLC
[49] = tested on: RXF 393 renal
[50] = tested on: LOX IMVI melanoma
[51] = tested on: SK-MEL-2 melanoma
[52] = tested on: MDA-MB-435
[53] = tested on: HCT-15 colon
[54] = tested on: T-47D breast
[55] = tested on: MDA-MB-231 breast
[56] = tested on: NCI-H226 lung
[57] = tested on: SNB-75 CNS
[58] = tested on: CCRF-CEM leukemia
[59] = tested on: HCC-2998 colon

O=C(O)CC1OCC=C2C[N+]3([O-])CCC45c6ccccc6NC4C1C2CC53 (centres undefined)
TGI [1]: > 100 µM
TGI [2]: > 100 µM
TGI [3]: > 100 µM
TGI [4]: > 100 µM
TGI [5]: > 100 µM
TGI [6]: > 100 µM
TGI [7]: > 100 µM
TGI [8]: > 100 µM
TGI [9]: > 100 µM
TGI [10]: > 100 µM
TGI [11]: > 100 µM
TGI [12]: > 100 µM
TGI [13]: > 100 µM
TGI [14]: > 100 µM
TGI [15]: > 100 µM
TGI [16]: > 100 µM
TGI [17]: > 100 µM
TGI [18]: > 100 µM
TGI [19]: > 100 µM
TGI [20]: > 100 µM
TGI [21]: > 100 µM
TGI [22]: > 100 µM
TGI [23]: > 100 µM
TGI [24]: > 100 µM
TGI [25]: > 100 µM
TGI [26]: > 100 µM
TGI [27]: > 100 µM
TGI [28]: > 100 µM
TGI [29]: > 100 µM
TGI [30]: > 100 µM
TGI [31]: > 100 µM
TGI [32]: > 100 µM
TGI [33]: > 100 µM
TGI [34]: > 100 µM
TGI [35]: > 100 µM
TGI [36]: > 100 µM
TGI [37]: > 100 µM
TGI [38]: > 100 µM
TGI [39]: > 100 µM
TGI [40]: > 100 µM
TGI [41]: > 100 µM
TGI [42]: > 100 µM
TGI [43]: > 100 µM
TGI [44]: > 100 µM
TGI [45]: > 100 µM
TGI [46]: > 100 µM
TGI [47]: > 100 µM
TGI [48]: > 100 µM
TGI [49]: > 100 µM
TGI [50]: > 100 µM
TGI [51]: 34.2 µM
TGI [52]: > 100 µM
TGI [53]: > 100 µM
TGI [54]: > 100 µM
TGI [55]: > 100 µM
TGI [56]: > 100 µM

CCOC(=O)/C=C(/OCC)[C@@H]1C(C(=O)c2ccc(Cl)cc2)[C@H]1/C(=C\C(=O)OCC)OCC (some centres undefined)
TGI [1]: > 23.6 µM
TGI [2]: > 100 µM
TGI [3]: > 100 µM
TGI [4]: > 100 µM
TGI [5]: > 100 µM
TGI [6]: > 100 µM
TGI [7]: > 100 µM
TGI [8]: > 100 µM
TGI [9]: > 100 µM
TGI [10]: > 100 µM
TGI [11]: > 100 µM
TGI [12]: > 100 µM
TGI [13]: > 100 µM
TGI [14]: > 100 µM
TGI [15]: > 100 µM
TGI [16]: > 100 µM
TGI [17]: > 100 µM
TGI [18]: > 100 µM
TGI [19]: > 28.8 µM
TGI [20]: > 100 µM
TGI [21]: > 100 µM
TGI [22]: > 100 µM
TGI [23]: > 100 µM
TGI [24]: > 100 µM
TGI [25]: > 100 µM
TGI [57]: > 100 µM
TGI [26]: > 100 µM
TGI [27]: > 100 µM
TGI [28]: > 100 µM
TGI [29]: > 100 µM
TGI [30]: > 100 µM
TGI [31]: > 100 µM
TGI [32]: > 100 µM
TGI [33]: > 25.2 µM
TGI [34]: > 100 µM
TGI [35]: > 100 µM
TGI [36]: > 100 µM
TGI [37]: > 100 µM
TGI [38]: > 100 µM
TGI [39]: > 100 µM
TGI [40]: > 100 µM
TGI [41]: > 100 µM
TGI [42]: > 100 µM
TGI [43]: > 100 µM
TGI [58]: > 100 µM
TGI [44]: > 100 µM
TGI [45]: > 100 µM
TGI [46]: > 100 µM
TGI [47]: > 100 µM
TGI [48]: > 100 µM
TGI [49]: > 100 µM
TGI [50]: > 100 µM
TGI [51]: > 100 µM
TGI [52]: > 100 µM
TGI [53]: > 100 µM
TGI [54]: > 100 µM
TGI [55]: > 100 µM
TGI [56]: > 100 µM

CCCCn1c(C)c(C(=O)CC)c(C(=O)NCCN2CCN(c3ccccc3Cl)CC2)c1C
TGI [1]: 60.1 µM
TGI [2]: 28.4 µM
TGI [3]: 29.9 µM
TGI [4]: 32.3 µM
TGI [5]: 30.9 µM
TGI [6]: 34.6 µM
TGI [7]: 31.3 µM
TGI [8]: 28.7 µM
TGI [9]: 30.5 µM
TGI [10]: 31 µM
TGI [11]: > 100 µM
TGI [12]: 30.3 µM
TGI [13]: 32.3 µM
TGI [14]: 33.5 µM
TGI [15]: 31.3 µM
TGI [16]: 34.3 µM
TGI [17]: 37.5 µM
TGI [18]: 28.9 µM
TGI [19]: 81.8 µM
TGI [20]: 27.7 µM
TGI [21]: 36.2 µM
TGI [22]: 33.1 µM
TGI [23]: 58.1 µM
TGI [24]: 30.2 µM
TGI [25]: 48.2 µM
TGI [26]: 27.7 µM
TGI [27]: 37.7 µM
TGI [28]: 40.6 µM
TGI [29]: 35.7 µM
TGI [30]: 29.2 µM
TGI [31]: 34.6 µM
TGI [32]: 27.1 µM
TGI [33]: > 100 µM
TGI [34]: 32.5 µM
TGI [35]: 34.4 µM
TGI [36]: 35.4 µM
TGI [37]: 33.3 µM
TGI [38]: 49.5 µM
TGI [39]: 31.1 µM
TGI [40]: 50.1 µM
TGI [41]: 33.9 µM
TGI [42]: 30.9 µM
TGI [43]: 48.1 µM
TGI [58]: > 100 µM
TGI [44]: 35.8 µM
TGI [45]: 33.3 µM
TGI [46]: 34.9 µM
TGI [47]: 26.3 µM
TGI [48]: 32.9 µM
TGI [49]: 39.4 µM
TGI [50]: 35.6 µM
TGI [51]: 32.1 µM
TGI [52]: 36.4 µM
TGI [53]: 31.6 µM
TGI [54]: 51.2 µM
TGI [55]: 33.8 µM
TGI [56]: 37.8 µM

COCOc1cc(OC)ccc1C/C=N/O
TGI [1]: > 100 µM
TGI [2]: > 100 µM
TGI [59]: > 100 µM
TGI [3]: > 100 µM
TGI [4]: > 100 µM
TGI [5]: > 100 µM
TGI [6]: > 100 µM
TGI [7]: > 100 µM
TGI [8]: > 100 µM
TGI [9]: > 100 µM
TGI [10]: > 100 µM
TGI [11]: > 100 µM
TGI [12]: > 100 µM
TGI [14]: > 100 µM
TGI [15]: > 100 µM
TGI [16]: > 100 µM
TGI [17]: > 100 µM
TGI [18]: > 100 µM
TGI [20]: > 100 µM
TGI [21]: > 100 µM
TGI [22]: > 100 µM
TGI [23]: > 100 µM
TGI [24]: > 100 µM
TGI [25]: > 100 µM
TGI [26]: > 100 µM
TGI [27]: > 100 µM
TGI [28]: > 100 µM
TGI [29]: > 100 µM
TGI [30]: > 100 µM
TGI [31]: > 100 µM
TGI [32]: > 100 µM
TGI [33]: > 100 µM
TGI [34]: > 100 µM
TGI [35]: > 100 µM
TGI [36]: > 100 µM
TGI [37]: > 100 µM
TGI [38]: > 100 µM
TGI [39]: > 100 µM
TGI [40]: > 100 µM
TGI [41]: > 100 µM
TGI [42]: > 100 µM
TGI [43]: > 100 µM
TGI [58]: > 100 µM
TGI [44]: > 100 µM
TGI [45]: > 100 µM
TGI [46]: > 100 µM
TGI [47]: > 100 µM
TGI [48]: > 100 µM
TGI [49]: > 100 µM
TGI [50]: > 100 µM
TGI [51]: > 100 µM
TGI [52]: > 100 µM
TGI [53]: > 100 µM
TGI [54]: > 100 µM
TGI [55]: > 100 µM
TGI [56]: > 100 µM

O=c1oc2ccc(Cl)cc2cc1C1=CSC2=NCCN12
TGI [1]: 34.6 µM
TGI [2]: 41.5 µM
TGI [59]: 29.4 µM
TGI [3]: 40.4 µM
TGI [4]: > 100 µM
TGI [5]: 32.7 µM
TGI [6]: 65.4 µM
TGI [7]: 56.2 µM
TGI [8]: 34.2 µM
TGI [9]: 47.4 µM
TGI [10]: 47.4 µM
TGI [11]: 49.1 µM
TGI [12]: 37.9 µM
TGI [14]: > 100 µM
TGI [15]: 67.7 µM
TGI [16]: > 100 µM
TGI [17]: 41.3 µM
TGI [18]: > 100 µM
TGI [19]: 44.1 µM
TGI [20]: 48.3 µM
TGI [21]: 40.1 µM
TGI [22]: 51.6 µM
TGI [23]: 93 µM
TGI [24]: > 100 µM
TGI [25]: 80.1 µM
TGI [57]: > 100 µM
TGI [26]: 32 µM
TGI [27]: 33.4 µM
TGI [28]: 34.3 µM
TGI [29]: > 100 µM
TGI [30]: 36.3 µM
TGI [31]: 59.1 µM
TGI [32]: 51.4 µM
TGI [33]: 36.8 µM
TGI [34]: 33.4 µM
TGI [35]: 79.7 µM
TGI [36]: 36.2 µM
TGI [37]: 34.5 µM
TGI [38]: 61 µM
TGI [39]: 49.2 µM
TGI [40]: 36.4 µM
TGI [41]: 84.4 µM
TGI [42]: 34 µM
TGI [43]: 35.5 µM
TGI [58]: 47 µM
TGI [44]: 38.7 µM
TGI [45]: > 100 µM
TGI [46]: 72 µM
TGI [47]: > 100 µM
TGI [48]: > 100 µM
TGI [49]: 49.5 µM
TGI [50]: 35.1 µM
TGI [51]: 55.8 µM
TGI [52]: 57.8 µM
TGI [53]: 41.6 µM
TGI [54]: 79.7 µM
TGI [55]: 40.9 µM
